Measurements as given in patent US8034803B2, “Photodynamic therapy of occult age-related macular degeneration” (QLT Inc., priority 2001, dated 2011).
Like-named read-outs stand apart in the source and are kept apart here.

How the values were obtained:
[1] = system: CNV lesions classified as predominantly classic or minimally classic; details: cited from earlier work
[2] = system: occult choroidal neovascular lesions; assay: Verteporfin PDT of occult CNV lesions versus placebo, best corrected visual acuity at 24 months; format: in vivo, human
Method: Subjects having, suspected of having, or otherwise afflicted with occult neovascular lesions were evaluated for best corrected visual acuity as outlined in Example 1, and their lesion size determined angiographically as outlined in Example 2. […] The greatest linear dimension of the entire CNV lesion was […], corresponding to 9 Disc Areas. Subjects were evaluated for visual acuity and lesion size about 1 week prior to treatment. Subjects were randomly assigned to a treatment group and a placebo group.
For each subject in the treatment group, a 15 mg-vial of liposomally-formulated verteporfin (Verteporfin for Injection (Visudyne™) was reconstituted with 7 mL of sterile water for injection to provide 7.5 mL containing a final concentration of 2 mg/mL. The volume of reconstituted drug required to achieve a dose of 6 mg/M^2 (based upon the height and weight of the subject, calculated from a nomogram) was withdrawn from the vial and diluted with 5% dextrose for injection to make a total infusion volume of 30 mL. The full infusion volume was administered intravenously over 10 minutes using an appropriate syringe pump and in-line filter. Fifteen minutes after the start of the infusion, light was administered to the lesion from a diode laser through a fiber optic delivered via a slit lamp, and utilizing a suitable lens. A light dose of 50J/cm^2 was applied at a fluency rate of 600 mW/cm^2, 50J/cm^2 (83 second exposure).
Subjects were evaluated by fluorescein angiography approximately every three months, and their best corrected visual acuity was assessed. Subjects were retreated if evidence of CNV leakage was detected by fluorescein angiography.

[3] = baseline visual acuity <65 letters, lesion size all, 24 months
[4] = baseline visual acuity <65 letters, lesion size ≦4DA, 24 months
[5] = baseline visual acuity <65 letters, lesion size ≧4DA, 24 months
[6] = baseline visual acuity ≧65 letters, lesion size all, 24 months
[7] = baseline visual acuity ≧65 letters, lesion size ≦4DA, 24 months
[8] = baseline visual acuity ≧65 letters, lesion size ≧4DA, 24 months

verteporfin
treatment benefit with verteporfin PDT ([1]; lesions classified as minimally classic): did not | treatment benefit with verteporfin PDT ([1]; lesions classified as predominantly classic): large treatment benefit | 30 Letter Response Rate (percent of subjects losing less than 30 letters) Difference V-P [2, 3]: 27.5% | Mean VA Difference [2, 3]: 11.7 | 15 Letter Response Rate (percent of subjects losing less than 15 letters) Difference V-P ([2]; baseline visual acuity <65 letters, lesion size all, 24 months after initial treatment, 6 mg/M^2 i.v., 50 J/cm^2): 33.8% | 15 Letter Response Rate (percent of subjects losing less than 15 letters) Difference V-P [2, 4]: 43.8% | 30 Letter Response Rate (percent of subjects losing less than 30 letters) Difference V-P [2, 4]: 19.4% | Mean VA Difference [2, 4]: 12.3 | 15 Letter Response Rate (percent of subjects losing less than 15 letters) Difference V-P [2, 5]: 21.5% | 30 Letter Response Rate (percent of subjects losing less than 30 letters) Difference V-P [2, 5]: 30.0% | Mean VA Difference [2, 5]: 9.4 | 15 Letter Response Rate (percent of subjects losing less than 15 letters) Difference V-P [2, 6]: −3.9% | 30 Letter Response Rate (percent of subjects losing less than 30 letters) Difference V-P [2, 6]: 8.5% | Mean VA Difference [2, 6]: 1.5 | 15 Letter Response Rate (percent of subjects losing less than 15 letters) Difference V-P [2, 7]: 12.5% | 30 Letter Response Rate (percent of subjects losing less than 30 letters) Difference V-P [2, 7]: 26.8% | Mean VA Difference [2, 7]: 9.3 | 15 Letter Response Rate (percent of subjects losing less than 15 letters) Difference V-P [2, 8]: −24% | 30 Letter Response Rate (percent of subjects losing less than 30 letters) Difference V-P [2, 8]: −5.3% | Mean VA Difference [2, 8]: −3.3 | response of subjects having occult lesions to PDT ([2]; study of Example 3, in words): respond to PDT
